Laboratory results as given in US8658604B2, “Template-fixed beta-hairpin peptidomimetics with protease inhibitory activity” (Polyphor Ltd, priority 2005, dated 2014).
pIC50: −log10 of the molar value. Where a SMILES comes first, the peptide text is derived from it.

Legend:
Chymase, from human skin = target: T1, Chymase, from human skin (Homo sapiens, UniProt P23946); test: Enzymatic assay, chymase
T1 sequence (P23946 22-247): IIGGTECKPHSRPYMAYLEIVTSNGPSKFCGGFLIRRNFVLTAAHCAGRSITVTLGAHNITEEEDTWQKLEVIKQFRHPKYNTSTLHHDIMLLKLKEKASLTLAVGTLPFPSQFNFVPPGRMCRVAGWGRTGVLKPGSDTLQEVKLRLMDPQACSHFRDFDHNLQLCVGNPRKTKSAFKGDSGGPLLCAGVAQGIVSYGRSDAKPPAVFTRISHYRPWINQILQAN

[1] = target: Trypsin, from human pancreas (Homo sapiens, UniProt P07477); test: Enzymatic assay, trypsin; conditions: at 100 μM
[2] = target: T2, Elastase from human neutrophils (Homo sapiens, UniProt P08246); test: Enzymatic assay, elastase; conditions: at 100 μM (stated in cell instead of IC50)
T2 sequence (P08246 30-267): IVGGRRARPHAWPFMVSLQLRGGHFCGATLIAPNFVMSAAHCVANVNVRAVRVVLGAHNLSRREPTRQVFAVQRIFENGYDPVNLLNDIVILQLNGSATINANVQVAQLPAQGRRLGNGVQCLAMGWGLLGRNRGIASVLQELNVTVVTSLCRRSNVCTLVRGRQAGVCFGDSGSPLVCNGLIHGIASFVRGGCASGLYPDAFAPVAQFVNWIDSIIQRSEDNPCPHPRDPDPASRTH

[3] = target: Chymotrypsin, from human pancreas (Homo sapiens, UniProt P17538); test: Enzymatic assay, chymotrypsin; conditions: at 100 μM
Sequence of Chymotrypsin, from human pancreas (P17538 19-263): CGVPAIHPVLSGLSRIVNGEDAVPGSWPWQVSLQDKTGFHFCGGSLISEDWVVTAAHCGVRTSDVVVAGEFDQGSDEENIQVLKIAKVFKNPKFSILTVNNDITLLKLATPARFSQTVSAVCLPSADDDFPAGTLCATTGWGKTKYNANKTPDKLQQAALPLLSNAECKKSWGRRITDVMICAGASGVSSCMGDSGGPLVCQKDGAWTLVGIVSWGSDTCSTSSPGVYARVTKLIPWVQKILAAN

[4] = target: T3, CathepsinG, from human neutrophils (Homo sapiens, UniProt P08311); test: Enzymatic assay, cathepsin G; conditions: Cathepsin G IC50
T3 sequence (P08311 21-244): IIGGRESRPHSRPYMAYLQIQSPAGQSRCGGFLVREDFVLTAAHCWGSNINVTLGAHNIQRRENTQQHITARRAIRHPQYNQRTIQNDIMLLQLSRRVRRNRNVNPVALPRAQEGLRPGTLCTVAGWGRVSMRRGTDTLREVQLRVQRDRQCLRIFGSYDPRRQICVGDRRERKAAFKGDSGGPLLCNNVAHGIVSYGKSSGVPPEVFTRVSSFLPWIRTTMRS

Compound	Chymase at 100 μM % (Chymase, from human skin)	Trypsin at 100 μM % [1]	Elastase at 100 μM % [2]	Chymotrypsin at 100 μM % [3]	pIC50 [4]
CC[C@H](C)[C@@H]1NC(=O)[C@@H]2CCCN2C(=O)[C@@H]2CCCN2C(=O)[C@H](CC(=O)O)NC(=O)[C@H](CO)NC(=O)[C@H](CCCCN)NC(=O)[C@H]([C@@H](C)O)NC(=O)[C@@H]2CSSC[C@H](NC1=O)C(=O)N[C@@H](CO)C(=O)N1CCC[C@@H]1C(=O)N1CCC[C@H]1C(=O)N[C@@H](C1CCCCC1)C(=O)N2 [Ex. 11] (HELM PEPTIDE1{[O=C([C@@H](N[*:1])C1CCCCC1)[*:2]].C.T.K.S.D.P.P.I.C.S.[dP].P}$PEPTIDE1,PEPTIDE1,2:R3-10:R3|PEPTIDE1,PEPTIDE1,1:R1-13:R2$$$V2.0)	12.1%	6.5%	19 at %	73.6%	7.02
CC[C@H](C)[C@@H]1NC(=O)[C@@H]2CCCN2C(=O)[C@@H]2CCCN2C(=O)[C@H](CC(=O)O)NC(=O)[C@H](CO)NC(=O)[C@H](CCCCN)NC(=O)[C@H]([C@@H](C)O)NC(=O)[C@@H]2CSSC[C@H](NC1=O)C(=O)N[C@@H](CCCNC(=N)N)C(=O)N1CCC[C@@H]1C(=O)N1CCC[C@H]1C(=O)N[C@@H](Cc1ccccc1Cl)C(=O)N2 [Ex. 13] (HELM PEPTIDE1{[O=C([C@H](Cc1ccccc1Cl)N[*:1])[*:2]].C.T.K.S.D.P.P.I.C.R.[dP].P}$PEPTIDE1,PEPTIDE1,2:R3-10:R3|PEPTIDE1,PEPTIDE1,1:R1-13:R2$$$V2.0)	19.9%	95.0%	8.2 at %		7.00
CC[C@H](C)[C@@H]1NC(=O)[C@@H]2CCCN2C(=O)[C@@H]2CCCN2C(=O)[C@H](CC(=O)O)NC(=O)[C@H](CN)NC(=O)[C@H](CCCCN)NC(=O)[C@H]([C@@H](C)O)NC(=O)[C@@H]2CSSC[C@H](NC1=O)C(=O)N[C@@H](CO)C(=O)N1CCC[C@@H]1C(=O)N1CCC[C@H]1C(=O)N[C@@H](Cc1ccccc1)C(=O)N2 [Ex. 25] (HELM PEPTIDE1{F.C.T.K.[NC[C@H](N[*:1])C(=O)[*:2]].D.P.P.I.C.S.[dP].P}$PEPTIDE1,PEPTIDE1,2:R3-10:R3|PEPTIDE1,PEPTIDE1,1:R1-13:R2$$$V2.0)	10.0%	89.3%	3.2 at %		6.99
CCCC[C@@H]1NC(=O)[C@H](CCCNC(=N)N)NC(=O)[C@@H]2CCCN2C(=O)[C@H]2CCCN2C(=O)[C@H](Cc2ccccc2)NC(=O)[C@H](CCCC)NC(=O)[C@H]([C@@H](C)CC)NC(=O)[C@@H]2CCCN2C(=O)[C@@H]2CCCN2C(=O)[C@H](CC(=O)O)NC(=O)[C@H](CO)NC(=O)[C@H](CCCCN)NC(=O)[C@H]([C@@H](C)O)NC1=O [Ex. 8] (HELM PEPTIDE1{R.[Nle].T.K.S.D.P.P.I.[Nle].F.[dP].P}$PEPTIDE1,PEPTIDE1,1:R1-13:R2$$$V2.0)	71.7%	74.2%	0.8 at %	5.6%	6.90
CCCC[C@@H]1NC(=O)[C@@H]2CCCN2C(=O)[C@H]2CCCN2C(=O)[C@H](CO)NC(=O)[C@@H]2CSSC[C@H](NC1=O)C(=O)N[C@@H]([C@@H](C)O)C(=O)N[C@@H](CCCCN)C(=O)N[C@@H](CO)C(=O)N[C@@H](CC(=O)O)C(=O)N1CCC[C@H]1C(=O)N1CCC[C@H]1C(=O)N[C@@H]([C@@H](C)CC)C(=O)N2 [Ex. 10] (HELM PEPTIDE1{[Nle].C.T.K.S.D.P.P.I.C.S.[dP].P}$PEPTIDE1,PEPTIDE1,2:R3-10:R3|PEPTIDE1,PEPTIDE1,1:R1-13:R2$$$V2.0)	9.4%	89.9%	0.3 at %		7.12
